Data set [1] has as its system CD63-Tluc-CD9-EmGFP THP-1 reporter cells. Kind of data set: CD63 Tluc-CD9 EmGFP THP-1 reporter cell assay (EV/exosome release). As to conditions: 48 hours incubation. The data set is classed as cell-based, human. The procedure: All these analogs were evaluated for induction of IL-12 cytokine at 10 μM, followed by dose response IL-12 induction for selected analogs. These analogs were also evaluated for exosome release by quantitating EV release in the supernatant post 48 hours incubation with CD63-Tluc-CD9-EmGFP THP-1 reporter cells.
In the HTS using CD63-Tluc-CD9EmGFP reporter cells (CD63 HTS), PMA (10 ng/ml) was used as a positive control (Shpigelman et al., 2021) and 0.5% DMSO was used as negative control (vehicle, Veh). Briefly, the harvested cells were resuspended in assay media containing 10% exosome-depleted […] (#A2720801, Thermo Fisher Scientific) and plated at 2×10^5 cells/mL (50 μL/well of 384-well plates) (#3674, Corning). Test compounds were added at a final concentration of 10 μM to cells and incubated for 48 hours at 37° C. Subsequently, the plate was centrifuged, supernatant (25 μL) was transferred, and chemiluminescent was measured as recombinant luciferase activity (RLU) after 10 minutes incubation with TurboLuc assay reagent (TurboLuc™ One-Step Glow Assay kit, Thermo Fisher Scientific). The response that measures activation and subsequent release of EVs was calculated using the following formula; % response=100×(compound RLU−average Veh RLU)/(average PMA RLU−average Veh RLU). The viability of cells was assessed using PrestoBlue reagent (Thermo Fisher Scientific). Briefly, PrestoBlue reagent (2.5 μl) was added to the remaining cells and incubated for 30 minutes at room temperature, followed by fluorescence readout at (Ex 560 nm/Em 590 nm) which was normalized to fluorescence data of the Veh wells within the plate to obtain “% viability” calculated as 100×(compound fluorescence/average Veh fluorescence).
CD63 Tluc-CD9 EmGFP THP-1 reporter cell assay. CD63 Tluc CD9 EmGFP THP-1 reporter cell (designated as CD63 Tluc reporter cells) were incubated with 10 μM test compounds, ION (1 μM), or 0.5% DMSO (negative control) in the RPMI 1640 supplemented with exosome-depleted FBS at 5×10^4 cells in 200 μL/well for a 96-well plate for 48 hours at 37° C. Subsequently, the plate was centrifuged, the supernatant was transferred, and chemiluminescence was measured by TurboLuc™ Luciferase One-Step Glow Assay Kit. The response that measures activation and subsequent release of EVs was calculated using the following formula; % response=100×(compound RLU−average Veh RLU)/(average PMA RLU−average Veh RLU).

Data set [2] deals with mBMDCs. The data set can be described thus: Cell viability / cytotoxicity in mBMDCs (MTT). The data set is classed as cell-based, mouse. Conditions: 10 μM.
Data set [3] deals with mBMDCs. The data set can be described thus: RNA sequencing analysis of mBMDCs. Type of data set: cell-based, mouse. As to conditions: 5 μM. The procedure:
FIGS. 2A-2C. RNA sequencing analysis of mBMDC treated with compound #634, (A) mBMDCs were treated with compound #634 (5 μM) or Veh (0.1% DMSO) or in triplicate for 5 hours. RNA was isolated, and RNA-seq analysis was performed by UC San Diego IGM Genomic Center. Data were analyzed by UC San Diego Moore Cancer Center Biostatistics and Bioinformatics Shared Resources. […] (B) Kyoto Encyclopedia of Genes and Genomes (KEGG) pathway analysis. Normalized enrichment scores (NES) of the top 10 positively and negatively enriched genes sets (FDR≤0.05 and fold change >2).
mBMDCs were treated with compound 634 (5 μM) or Veh (0.1% DMSO) in triplicate for 5 hours. RNA was isolated, and RNA-seq analysis was performed. […] Data were analyzed by UC San Diego Moore Cancer Center Biostatistics and Bioinformatics Shared Resources.
RNA-seq and Data Analysis. mBMDCs (1.5×10^6 cells, 10^6 cells/mL×1.5 mL) were treated with Veh (0.1% DMSO), 634 (5 μM) for 5 hours, and then the total RNA was isolated using Quick-RNA™ Miniprep Kit (Zymo Research). Each group has triplicates. RNA-seq was performed by the sequencing core at the UC San Diego institute for Genomic Medicine Genomics Center. Briefly, paired-ended sequencing was performed on the Illumina NovaSeq 6000. Reads were aligned to the mouse reference genome (mm10) using STAR (ver. 2.5.1), and mRNA expression levels were calculated per gene using RSEM (ver. 1.3.0). Genes were filtered if more than 24 out of 27 of the samples (including compound 634, there were a total of 8 testing compounds and DMSO in triplicated samples) had counts <10. Raw counts were then quantile normalized and used as expression values in the subsequent analysis. Also, if mouse gene IDs corresponded with multiple human genes, the genes with highest variance in expression values were kept (Miller et al., 2011). A total of 11759 genes remained. Limma (liner models for microarray, using Rlimma package) trend tests were used for differential analysis based on log 2 expression values. The Benjamini-Hochberg procedure was applied to control the false discovery rate (FDR). […] RNA-seq data have been deposited in ArrayExpress, https://www.ebi.ac.uk/arrayexpress/(accession no. E-MTAB-12377) (Hayashi, 2022).

Where [4] appears, read: 5 hours, FDR≤0.05 and fold change >2.

The structures appear in SMILES notation.

Consider `CCOC(=O)c1c(NS(=O)(=O)c2cccc3c2N=S=N3)sc(C)c1C` [#634, ethyl 2-(benzo[c][1,2,5]thiadiazole-4-sulfonamido)-4,5-dimethylthiophene-3-carboxylate], for which, in data set [1], the “exosome (EV) release in CD63 reporter THP-1 cells” value is “enhanced exosome release”.

As for `CCOC(=O)c1c(NS(=O)(=O)c2cccc3nsnc23)sc(C)c1C` [compound 634, Ethyl 2-(benzo[c][1,2,5]thiadiazole-4-sulfonamido)-4,5-dimethylthiophene-3-carboxylate], the “toxicity to mBMDC” value in data set [2] is on record as “non-toxic”. Further, in data set [3] (5 hours vs Veh, down-regulated), the “FC Cdhr1” value is 0.40 and the “FC Hrh1” value stood at 0.46. In data set [3] (5 hours vs Veh, up-regulated), the “FC Cdh1” value is reported as 2.61, the “FC Htr7” value is on record as 2.38, the “FC Oit3” value was 2.02 and the “FC Ppm1e” value is reported as 2.77. For the same compound, the “FC Sla2” value in data set [3] (5 hours vs Veh, up-regulated) is given as 2.04. In addition, in data set [3] (setting [4]), the down-regulated genes came to 17 genes, the “genes with modulated expression compared to Veh” value is listed as 103 genes and the up-regulated genes is reported as 86 genes.

The values above are taken from patent US20250281465A1, “MOLECULES THAT ENHANCE EXTRACELLULAR VESICLE RELEASE” (priority 2022, published 2025).
